In US12458599B2, “Bioactivatable devices and related methods” (CTI Vascular AG, priority 2020, dated 2025):
Where two headings read alike, the source gives them in different places.

Tests used:
[1] = solubility of ATTM in solvents; assay type: physicochemical
Source text: Preparation of Exemplary Coating Formulations: (NH4)2MoS4 (“ATTM” or ammoniumtetrathiomolybdate) as a representative compound for a pharmaceutically active copper chelating agent can be dissolved in a suitable solvent including, without limitation dimethyl acetamide, dimethylsulfoxide or tetramethylurea to provide a desired saturation concentration. […] The concentrated ATTM solution can be mixed with a variety of suitable matrix polymers commonly known to one of ordinary skill in the art, including, without limitation PVDF-HVP, PET, PLGA, PLLA, PHA, polyurethanes, polyphosphazenes, silicones and equivalents, in a suitable volume ratio to form a readily available coating formulation with a defined polymer to ATTM weight ratio per ml coating formulation. The matrix polymer solvent can be chosen to be mutually compatible with the ATTM solvent in order to avoid potential phase separation. The obtained deep red to orange solution can be centrifuged, and the supernatant filtered through a 0.22 μm PTFE filter to remove any solid residue. The finally obtained ATTM concentration can be determined via UV-Vis spectroscopy.

[2] = cited from earlier work
[3] = system: venous endothelial cell proliferation; conditions: cited from earlier work
IL-1α = conditions: cited from earlier work
aqueous solubility = assay type: physicochemical
Experimental: Solubility: Information on the actual quantitative solubility of solid Molybdenum disulfide can be sparse, and the compound can be often quoted as being insoluble in water. […] Thus, upon prolonged contact between MoS2 coated surface with an aqueous medium, a saturation concentration of 0.125-1.25 μM MoO4^2− can reasonably be expected.

SMILES | solubility in acetone, acetonitrile, cyclohexanone, methylisobutylketone [1] | solubility in dimethylacetamide, tetramethylurea, dimethylsulfoxide, N-methylpyrrolidone, ethylendiamine, pyridine, methanol, ethanediol and water [1] | aqueous solubility ([2]; reported) | systemic concentration sufficient to achieve inhibition of venous endothelial cell proliferation [3] [µM] | concentration inhibiting the release of IL-1α (IL-1α) [nM] | saturation concentration of MoO4^2− (aqueous solubility; prolonged contact of MoS2 coated surface with aqueous medium, expected) [µM] | predicted maximum aqueous saturation concentration of the molybdate species (TM0) (aqueous solubility; stemming from MoS2) [µM] | aqueous solubility ([2]; aqueous environments) [µM]
[NH4+].[NH4+].[SH-].[SH-].[S]=[Mo]=[S] [ATTM, Ammoniumtetrathiomolybdate; (NH4)2MoS4] | limited solubility | reasonable solubility | at least 7 mM | 5 | 250 |  |  | 
[S]=[Mo]=[S] [MoS2, Molybdenum disulfide] |  |  |  |  |  | 0.125 to 1.25 | 1.25 | 0.125 to 1.25
